Here are results for two compounds from patent US20140294729A1, “METHODS FOR IDENTIFICATION AND USE OF AGENTS TARGETING CANCER STEM CELLS” (Whitehead Institute for Biomedical Research, priority 2008, published 2014).

In assay [1] the test system is CSCs in breast cancer cell populations. The assay can be described thus: In vivo tumor-seeding ability after in vitro drug treatment (serial dilution, subcutaneous injection). Also on record: species or system NOD/SCID mice. The method, then:
Finally, we also directly assessed the functional presence of CSCs by assaying in vivo tumor-seeding ability following drug treatment. Cells were treated in vitro for 5 days and then injected subcutaneously into NOD/SCID mice. […] The proportion of functional CSCs was thus reduced by 1000-fold following salinomycin treatment compared to paclitaxel treatment.
(§1) To directly evaluate the effect of salinomycin on cancer stem cell populations, we functionally assayed for cancer stem cell activity in salinomycin, taxol, or DMSO-treated cultures.
We have established several downstream assays for the follow-up evaluation of screen hits with respect to their effects on cancer stem cells: (1) Treat cells in culture for a period of time with screen hits (e.g., compounds, compositions, antibodies, shRNAs, etc.), including the necessary controls, and then allow the cells to recover for a period (e.g., up to 12 hours, up to 24 hours, up to 48 hours, up to 72 hours etc.), and then perform FACS with markers that identify populations enriched for cancer stem cells (for example, but not limited to, CD44+/CD24− in the case of breast cancer). (2) Treat cells in culture for a period of time with screen hits, allow them to recover for a prescribed period of time, and then perform colony formation assays in suspension in the absence of chemical compound (for breast cancer cells, these assays are referred to as mammosphere formation assays). (3) Treat cells in culture for a period of time with screen hits, allow them to recover for a prescribed period of time, and then inject cells at various cell numbers subcutaneously into immunocompromised animals and evaluate the frequency of tumor formation. The number of injected cells could include 10̂6, 10̂5, 10̂4, 10̂3, and 10̂2 cells. Using follow-up assays, such as those disclosed herein, one can evaluate whether or not a screen hit (or any drug with potential CSC-directed activity) is a bonafide inhibitor of cancer stem cells.

Assay [2] concerns HMLER cells. The assay can be described thus: FACS of the CD44+/CD24- CSC population in treated HMLER cells. Format: cell-based, human. The method, then:
(§2) FIGS. 6A and 6B depict effects of salinomycin on the CSC population in HMLER cell line. (FIG. 6A) HMLER cells were treated with vehicle control (dmso), salinomycin or paclitaxel at the indicated concentrations for 15 days. FACS analysis were performed at the end of treatment to gauge the CD44+/CD24− CSC population (right panels). Note that salinomycin decreases the CD44+/CD24− population from a basal of 4.9% to 0.2%. Treated cultures were also subjected to the mammosphere formation assay (left panels). Number of mammopsheres formed per 1000 cells from each culture are indicated below the representative photographs of assay wells. (FIG. 6B) Growth rates of HMLER cultures after treatment with vehicle control (dmso), salinomycin or paclitaxel at the indicated concentrations in (A) for 15 days.
We then turned to the critical question of whether the compounds had the general ability to inhibit CSCs in breast cancer cell lines. […] We next compared the effects of salinomycin, control vehicle DMSO and paclitaxel on HMLER cells. […] The CD44+/CD24− fraction was thus 360-fold lower following treatment with salinomycin than with paclitaxel (FIG. 6A). Proliferation of the bulk population was not inhibited following treatment with salinomycin relative to either vehicle- or paclitaxel-treatment (FIG. 6B).
(§3) The anti-CD44 (clone G44-26) antibody conjugated to APC and the anti-CD24 antibody (clone ML5) conjugated to PE used for FACS analysis were obtained from BD Bioscience and used according to the manufacturer's instructions. Propidium Iodide (5 ug/ml) was included in the staining protocol to distinguish live cells.

The subject of assay [3] is SUM159 breast cancer cells. The assay can be described thus: In vivo tumor formation by SUM159 breast cancer cells in treated mice. The following applies: FIG. 15A. The method, then:
FIG. 15A depicts in vivo tumor formation by SUM159 breast cancer cells in mice that were treated with salinomycin, paclitaxel or vehicle. […] FIG. 15B depicts the mammosphere-forming potential of cancer cells obtained from SUM159 tumors from salinomycin, paclitaxel or DMSO-treated mice.
(§4) The mammosphere forming potential of parental HMLER cells treated with either DMSO, paclitaxel (taxol) or salinomycin was also examined at various doses. Salinomycin, but not paclitaxel inhibited mammosphere formation in MCF7Ras or 4T1 cells. (FIG. 14.) The effects of salinomycin, paclitaxel or vehicle control treatments on in vivo tumor formation by SUM159 breast cancer cells injected in mice was determined. […] (FIG. 15A.) The mammosphere-forming potential of cancer cells obtained from SUM159 tumors from salinomycin, paclitaxel or DMSO-treated mice was also determined (FIG. 15B.)

Assay [4] relates to SUM159 cells. The assay can be described thus: FACS of the CD44hi/CD24lo fraction in treated SUM159 cells. Format: cell-based. The following applies: for percent of cells in the CD44hi/CD2410 fraction relative to DMSO controls: FIGS. 5C and 5D.
Excerpt: FIG. 5A depicts flow cytometry analysis of Sum159, MDA-MB-231 and T47D cell lines with respect to cell surface expression of CD44 and CD24. Note that while the majority of cells in Sum159 and MDA-MB-231 line contain large amounts of CSCs, T47D cells have very few such cells. FIG. 5B depicts dose response curves of Sum159, MDA-MB-231 and T47D cell treated with Salinomycin.
To further characterize the effects of compound treatment on cancer cells, we conducted FACS analyses on SUM159 cells treated with salinomycin, abamectin, taxol, or DMSO.
as §3

In assay [5] the test system is SUM159 breast cancer cells. The assay can be described thus: Mammosphere formation assay with SUM159 breast cancer cells. In kind it is cell-based. How it is done: as §1
(§5) Mammosphere culture was performed as described (Dontu et al., 2003), except that the culture medium contained 0.9% methyl cellulose (Stem cell technologies) to prevent cell aggregation. […] were plated per well in 96-well plates. The mammospheres were cultured for 7-10 days and then photographed and counted.

The subject of assay [6] is MCF7Ras cells. The assay can be described thus: Mammosphere-forming potential of treated MCF7Ras cells. Format: cell-based. The following applies: FIG. 14. How it is done:
(§6) FIG. 14A depicts the mammosphere forming potential of parental HMLER cells treated with either DMSO, paclitaxel (taxol) or salinomycin at the specified doses. FIG. 14B depicts MCF7Ras or 4T1 cells that were treated with DMSO, paclitaxel or salinomycin. Mammosphere-forming potential is shown below.
as §5, §4

The test system of assay [7] is 4T1 cells. The assay can be described thus: Mammosphere-forming potential of treated 4T1 cells. In kind it is cell-based. The following applies: FIG. 14. How it is done:
as §6, §5, §4

Assay [8] has as its system HMLER cells. The assay can be described thus: Mammosphere formation assay of treated HMLER cells. Format: cell-based, human. How it is done:
as §2
We examined the ability of breast cancer cells to form mammospheres following treatment with salinomycin.
as §5

Structures are written as SMILES. “Also recorded” adds a separate entry of the source.

Regarding `CC(=O)O[C@H]1C(=O)[C@@]2(C)[C@H]([C@H](OC(=O)c3ccccc3)[C@]3(O)C[C@H](OC(=O)[C@H](O)[C@@H](NC(=O)c4ccccc4)c4ccccc4)C(C)=C1C3(C)C)[C@]1(OC(C)=O)CO[C@@H]1C[C@@H]2O` [paclitaxel], the “increase in tumor-seeding ability relative to controls” value in assay [1] (cells treated in vitro for 5 days, data not shown) is reported as approximately 10 fold. In addition, the “CSC functional activity / CSC number in tumor-formation dilution series relative to DMSO-treated controls” value is on record as “induced an increase in CSCs” in assay [1] (mouse, in vivo) and “opposite effect” in assay [1] (mouse, in vivo, listed as taxol). The “increase of the CSC-fraction (CD44+/CD24−)” value in assay [2] (FIG. 6A) worked out at 18 fold. Further, the “tumor volume / tumor growth compared with vehicle control” value in assay [3] was “reduced tumor volume”. For the same compound, the “percent of cells in the CD44hi/CD2410 fraction relative to DMSO controls” value in assay [4] is “did not significantly affect”. The “number of cells capable of forming colonies in suspension culture relative to DMSO” value in assay [5] is “increase”. In addition, the mammosphere formation entry in assay [6] and in assay [7] was “not” in each case. The mammosphere size result in assay [8] was “significant increase”. Besides, the “effect on the number of mammospheres” value in assay [8] (FIG. 6A) is “neither paclitaxel nor vehicle treatment affected the number of mammospheres”.
Regarding `CC[C@@H](C(=O)[C@@H](C)[C@@H](O)[C@H](C)[C@@H]1O[C@@H]([C@@H](CC)C(=O)O)CC[C@@H]1C)[C@H]1O[C@]2(C=C[C@@H](O)[C@]3(CC[C@@](C)([C@H]4CC[C@](O)(CC)[C@H](C)O4)O3)O2)[C@H](C)C[C@@H]1C` [salinomycin], in assay [1] (cells treated in vitro for 5 days, injected subcutaneously, data not shown), the “decrease in tumor-seeding ability (CSCs) relative to vehicle/control treatment” value is reported as 100 fold. Further, in assay [1] (mouse, in vivo), the “CSC functional activity / CSC number in tumor-formation dilution series relative to DMSO-treated controls” value was “significantly reduced” and the “reduction of functional CSCs following salinomycin compared to paclitaxel treatment” value is 1000 fold. The “CD44+/CD24− population after treatment (basal 4.9%)” value in assay [2] (15 days) is recorded as 0.2%. For the same compound, in assay [2] (FIG. 6A), the “CD44+/CD24− fraction lower following salinomycin than with paclitaxel” value was determined as 360 fold and the “decrease of the proportion of CD44+/CD24− cells relative to vehicle-treated controls” value is 20 fold. For the same compound, in assay [3], the “tumor volume / tumor growth compared with vehicle control” value was “reduced tumor volume; also recorded: inhibition of tumor growth”. Moreover, in assay [4], the “increase in the CSC-depleted fraction” value is approximately 3 fold and the “percent of cells in the CD44hi/CD2410 fraction relative to DMSO controls” value was “significantly reduced”. Moreover, in assay [4] (listed as Salinomycin), the “percent of cells in the CD44hi/CD2410 fraction relative to DMSO controls” value is “decrease in the CSC population”. Moreover, the “number of cells capable of forming colonies in suspension culture relative to DMSO” value in assay [5] is given as “significantly reduced”. Besides, the mammosphere formation entry in assay [6] is “inhibited”. In assay [7], the mammosphere formation result is on record as “inhibited”. The “decrease in the number of mammospheres relative to controls” value in assay [8] (FIG. 6A) is recorded as approximately 10 fold.
